Assay results taken from patent EP0603240B1, “SAFENING HERBICIDAL PYRAZOLYLSULFONYLUREAS” (priority 1991, dated 1993).

Columns and labels:
Experiment in all cases: Example 23, Procedure II: Antidote Nos. 15 and 17-21 against Herbicide No. 1, 13 days after application
Format in all cases: in vivo
[1] = tested on: velvetleaf (Abutilon theophrasti)
Protocol: (§1) Containers were filled and compacted with a fumigated silt loam top soil to a depth of about 1.3 cm from the top of the container. A first container was designated as an untreated control, a second container was designated as a herbicide control, and a third container was designated as a herbicide + antidote test container. Each of the containers was seeded with a crop species. A measured amount of herbicide dispersed or dissolved in acetone was applied to a measured quantity of soil. To this same quantity of soil treated with herbicide, there was added a measured amount of antidote dispersed or dissolved in acetone. The quantity of soil treated with the herbicide and antidote was thoroughly mixed to incorporate the herbicide and antidote in the soil uniformly. The seed bed in the third container of soil was covered with the soil treated with the herbicide and antidote and the container was leveled. For each test series, the seed beds of the first and second containers were likewise covered by soil layers. the cover layer of the first container was not treated with herbicide or antidote.
(§2) The containers were then placed on a bench in a greenhouse and sub-irrigated as required for the duration of the test. […] Plant response is measured in terms of percent injury. Antidote efficacy is indicated as the difference in plant injury by the herbicide(s) without the antidote and with the antidote.
(§3) This procedure is the same as Procedure I, but modified in the manner that after incorporation of the chemicals (herbicide and antidote) the containers with the covered seedbed were treated with an initial overhead irrigation equivalent to 0.6 cm rainfall, then subsequently sub-irrigated as required on greenhouse benches.
(§4) In other greenhouse tests, using Procedure II described above, the safening efficacy of Antidote Nos. 15 and 17-21 was evaluated against Herbicide No. 1 in corn in the presence of Giant foxtail (Setaria fabergi) and Velvetleaf (Abutilon theophrasti) as representative annual monocotyledonous and dicotyledonous weeds, respectively.
(§5) Test results are shown in Tables 23A and 23B wherein the indicated plant inhibition represents the average of duplicate replications, with observations being made thirteen (13) days after application of the chemicals. Giant foxtail and Velvetleaf are represented by the symbols "GFT" and "VL", respectively. The data in Table 23A show the test results using the antidotes at 2.24 kg/ha, whereas in Table 23B, the antidotal rate was reduced to 0.56 kg/ha.

corn = conditions: 13 days after application
Protocol: as §1, §2, §3, §4, §5

[2] = tested on: Giant foxtail (Setaria fabergi)
Protocol: as §1, §2, §3, §4, §5

[3] = Table 23A, Herb. No. 1 0.14 Kg/Ha + antidote 2.24 Kg/ha
[4] = Table 23A, Herb. No. 1 0.28 Kg/Ha + antidote 2.24 Kg/ha
[5] = Table 23A, Herb. No. 1 0.56 Kg/Ha + antidote 2.24 Kg/ha
[6] = Table 23A, Herb. No. 1 1.12 Kg/Ha + antidote 2.24 Kg/ha
[7] = Table 23B, Herb. No. 1 0.14 Kg/Ha + antidote 0.56 Kg/ha
[8] = Table 23B, Herb. No. 1 0.28 Kg/Ha + antidote 0.56 Kg/ha
[9] = Table 23B, Herb. No. 1 0.56 Kg/Ha + antidote 0.56 Kg/ha
[10] = Table 23B, Herb. No. 1 1.12 Kg/Ha + antidote 0.56 Kg/ha

Row | SMILES | % Inhibition VL [1, 3] | % Inhibition VL [1, 4] | % Inhibition VL [1, 5] | % Inhibition VL [1, 6] | % Inhibition VL [1, 7] | % Inhibition VL [1, 8] | % Inhibition VL [1, 9] | % Inhibition VL [1, 10] | % Inhibition Corn (corn; [3]) | % Inhibition Corn (corn; [4]) | % Inhibition Corn (corn; [5]) | % Inhibition Corn (corn; [6]) | % Inhibition Corn (corn; [7]) | % Inhibition Corn (corn; [8]) | % Inhibition Corn (corn; [9]) | % Inhibition Corn (corn; [10]) | % Inhibition GFT [2, 3] | % Inhibition GFT [2, 4] | % Inhibition GFT [2, 5] | % Inhibition GFT [2, 6] | further results
1 | O=C(O)COC(c1ccccc1)c1ccccc1 [compound 18] | 90% | 95% | 95% | 95% | 90% | 95% | 90% | 95% | 0% | 0% | 10% | 10% | 5% | 5% | 20% | 30% | 15% | 30% | 65% | 70% | % Inhibition GFT [2, 7]: 15%; % Inhibition GFT [2, 8]: 20%; % Inhibition GFT [2, 9]: 60%; % Inhibition GFT [2, 10]: 60%
2 | O=C(O)COC(c1ccccc1)c1ccccc1 [compound 19] | 90% | 85% | 95% | 95% | 85% | 85% | 90% | 90% | 0% | 0% | 5% | 15% | 0% | 5% | 15% | 40% | 15% | 30% | 50% | 70% | % Inhibition GFT [2, 7]: 25%; % Inhibition GFT [2, 8]: 40%; % Inhibition GFT [2, 9]: 60%; % Inhibition GFT [2, 10]: 65%
3 | COC(=O)COC(c1ccccc1)c1ccccc1 [compound 20] | 90% | 90% | 85% | 90% | 90% | 90% | 90% | 95% | 0% | 0% | 0% | 15% | 0% | 5% | 20% | 40% | 15% | 35% | 40% | 65% | % Inhibition GFT [2, 7]: 15%; % Inhibition GFT [2, 8]: 20%; % Inhibition GFT [2, 9]: 60%; % Inhibition GFT [2, 10]: 75%
4 | CCSC(=O)COC(c1ccccc1)c1ccccc1 [compound 21] | 85% | 85% | 95% | 95% | 85% | 90% | 90% | 95% | 0% | 0% | 5% | 30% | 0% | 5% | 20% | 35% | 10% | 20% | 35% | 70% | % Inhibition GFT [2, 7]: 20%; % Inhibition GFT [2, 8]: 45%; % Inhibition GFT [2, 9]: 50%; % Inhibition GFT [2, 10]: 75%
